Values after ≈ are worked out from the molar mass of the structure shown.
Assays:
[1] = acetic acid
[2] = acetic acid; remark: listed apart in the source
physchem = settings: EtOH/EtOAc/Tol, organic solvent or mixture, Solubility-Org (EtOH/EtOAc/Tol)
[3] = tested on: MCF-7 cell line (human breast cancer cell line); settings: MCF-7 human breast cancer cell line; cited from earlier work
uterine response = settings: preclinical models of uterine stimulation; cited from earlier work
[4] = tested on: ovariectomized rat model of osteopenia; settings: cited from earlier work

Row | SMILES | Solubility-Water [1] [mg/mL] | Solubility-Org (EtOH/EtOAc/Tol) [2] [mg/mL] | solubility (physchem) [mg/mL] | estrogen agonist/antagonist behaviour in MCF-7 cells [3] | stimulation of uterine response (uterine response) | effect on bone loss [4] | effect on cholesterol [4]
1 | Cc1c(-c2ccc(O)cc2)n(Cc2ccc(OCCN3CCCCCC3)cc2)c2ccc(O)cc12 [Form B, 1-[4-(2-azepan-1-yl-ethoxy)-benzyl]-2-(4-hydroxy-phenyl)-3-methyl-1H-indol-5-ol acetic acid] | 0.23 (≈ 0.489 mM) | 12.4 (≈ 26.3 mM) | – | – | – | – | –
2 | Cc1c(-c2ccc(O)cc2)n(Cc2ccc(OCCN3CCCCCC3)cc2)c2ccc(O)cc12 [Form A, 1-[4-(2-azepan-1-yl-ethoxy)-benzyl]-2-(4-hydroxy-phenyl)-3-methyl-1H-indol-5-ol acetic acid] | 0.49 (≈ 1.04 mM) | – | 24.5 (≈ 52.1 mM) | – | – | – | –
3 | Cc1c(-c2ccc(O)cc2)n(Cc2ccc(OCCN3CCCCCC3)cc2)c2ccc(O)cc12 [bazedoxifene acetate, 1-[4-(2-azepan-1-yl-ethoxy)-benzyl]-2-(4-hydroxy-phenyl)-3-methyl-1H-indol-5-ol acetic acid] | – | – | – | behaves as an estrogen antagonist | little or no stimulation of uterine response | estrogen agonist-like effect in preventing bone loss | reducing cholesterol

— patent US7683051B2, “Crystalline polymorph of bazedoxifene acetate” (Wyeth, priority 2004, dated 2010)
